The subject of test [1] is Mus musculus. Put plainly: Lipid lowering activity in starvation-induced hyperlipidemic male C57BL/6J mouse model assessed as downregulation of FASN gene expression level starved for 48 hrs followed by oral administration of compound and measured after 2 hrs by RT-qPCR analysis. In kind it is functional, organism-based. The settings on record: dose 10-30 mg/kg. (In general: Real-time PCR tracks product formation cycle by cycle.)

Test [2] concerns AML12. Put plainly: Effect on lipid accumulation in oleic and palmitic acid induced mouse AML12 cells assessed as decrease in total cholesterol level. In kind it is functional, cell-based. To be noted: dose 3-30 µM.
For test [3], the system named is HepG2. Put plainly: Lipid lowering effect on PCN-induced lipid accumulation in human HepG2 cells assessed as decrease in ACC1 mRNA expression level at 3 to 30 uM by RT-qPCR analysis. It is filed as functional, cell-based. To be noted: dose 3-30 µM.
The test system of test [4] is Hepatocyte. Put plainly: Lipid lowering effect on PCN-induced lipid accumulation in mouse Primary hepatocyte assessed as decrease in HMGCR mRNA expression level at 3 to 30 uM by RT-qPCR analysis. It is filed as functional, cell-based. To be noted: dose 3-30 µM.
Test [5] relates to Hepatocyte. Put plainly: Lipid lowering effect on PCN-induced lipid accumulation in mouse Primary hepatocyte assessed as decrease in ACC1 mRNA expression level at 3 to 30 uM by RT-qPCR analysis. In kind it is functional, cell-based. To be noted: dose 3-30 µM.
The test system of test [6] is Mus musculus. The test can be described thus: Effect on SLC13A5 mRNA expression in PCN-induced hyperlipidemic male C57BL/6J mouse model at 10 to 30 mg/kg, IG preadministered with compound for 15 to 30 mins followed by PCN administration and measured after 7 days by RT-qPCR analysis. It is filed as functional, organism-based. To be noted: dose 10-30 mg/kg, time 15-10110 min.

Test [7] has as its system Mus musculus. Put plainly: Lipid lowering activity in PCN-induced hyperlipidemic male C57BL/6J mouse model assessed as decrease in FASN mRNA expression level preadministered intragastrically with compound for 15 to 30 mins followed by PCN administration and measured after 7 days by RT-qPCR analysis. The settings on record: dose 10-30 mg/kg, route ig, time 15-10110 min. It is filed as functional, organism-based.

Test [8] addresses T1, Na(+)/dicarboxylate cotransporter 3 (Homo sapiens) (UniProt Q8WWT9).
T1 sequence (whole entry): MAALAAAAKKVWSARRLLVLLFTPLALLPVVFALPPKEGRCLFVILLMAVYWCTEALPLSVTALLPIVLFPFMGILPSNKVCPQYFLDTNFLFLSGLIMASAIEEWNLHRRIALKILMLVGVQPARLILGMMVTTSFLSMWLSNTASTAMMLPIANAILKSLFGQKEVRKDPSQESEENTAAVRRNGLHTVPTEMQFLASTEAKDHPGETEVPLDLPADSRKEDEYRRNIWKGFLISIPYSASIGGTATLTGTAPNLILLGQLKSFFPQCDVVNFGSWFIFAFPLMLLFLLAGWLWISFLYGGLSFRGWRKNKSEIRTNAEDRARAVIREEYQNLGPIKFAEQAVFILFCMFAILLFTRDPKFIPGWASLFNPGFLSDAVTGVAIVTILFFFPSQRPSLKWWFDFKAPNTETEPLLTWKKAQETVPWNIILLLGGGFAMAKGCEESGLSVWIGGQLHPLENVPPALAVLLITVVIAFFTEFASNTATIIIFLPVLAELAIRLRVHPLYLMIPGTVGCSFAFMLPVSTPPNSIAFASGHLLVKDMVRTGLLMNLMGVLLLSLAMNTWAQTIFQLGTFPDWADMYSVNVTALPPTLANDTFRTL
Put plainly: Inhibition of NaDC3 (unknown origin) citrate transport activity.

For test [9], the system named is Mus musculus. Put plainly: Lipid lowering activity in starvation-induced hyperlipidemic male C57BL/6J mouse model assessed as downregulation of ACC1 gene expression level starved for 48 hrs followed by oral administration of compound and measured after 2 hrs by RT-qPCR analysis. In kind it is functional, organism-based. To be noted: dose 10-30 mg/kg.
Test [10] deals with AML12. Put plainly: Lipid lowering effect on PCN-induced lipid accumulation in mouse AML12 cells assessed as decrease in HMGCR mRNA expression level at 3 to 30 uM preincubated with compound for 30 mins followed by PCN addition and measured after 24 hrs by RT-qPCR analysis. It is filed as functional, cell-based. To be noted: dose 3-30 µM, time 24.5 hrs.
For test [11], the system named is Mus musculus. The test can be described thus: Lipid lowering activity in starvation-induced hyperlipidemic male C57BL/6J mouse model assessed as decrease in NEFA level in liver at 10 to 30 mg/kg, ip starved for 48 hrs followed by compound administration and measured after 2 hrs. It is filed as functional, organism-based. The settings on record: dose 10-30 mg/kg.

The test system of test [12] is Mus musculus. The test can be described thus: Lipid lowering activity in PCN-induced hyperlipidemic male C57BL/6J mouse model assessed as decrease in plasma total cholesterol level at 10 to 30 mg/kg, IG preadministered with compound for 15 to 30 mins followed by PCN administration and measured after 7 days. In kind it is functional, organism-based. The settings on record: dose 10-30 mg/kg, time 15-10110 min.

Test [13] has as its system HepG2. The test can be described thus: Lipid lowering effect on PCN-induced lipid accumulation in human HepG2 cells assessed as decrease in intracellular triglyceride level. In kind it is functional, cell-based. To be noted: dose 3-30 µM.
Test [14] concerns Mus musculus. Put plainly: In vivo inhibition of SLC13A5 in starvation-induced hyperlipidemic male C57BL/6J mouse model assessed as decrease in liver citrate level at 30 mg/kg, ip starved for 48 hrs followed by compound administration and measured after 2 hrs. It is filed as functional, organism-based.
For test [15], the system named is Mus musculus. Put plainly: Lipid lowering activity in starvation-induced hyperlipidemic male C57BL/6J mouse model assessed as decrease in triglyceride level in plasma at 10 to 30 mg/kg, ip starved for 48 hrs followed by compound administration and measured after 2 hrs. In kind it is functional, organism-based. To be noted: dose 10-30 mg/kg.
Test [16] deals with Hepatocyte. Put plainly: Lipid lowering effect on PCN-induced lipid accumulation in mouse Primary hepatocyte assessed as decrease in FASN mRNA expression level at 3 to 30 uM by RT-qPCR analysis. It is filed as functional, cell-based. To be noted: dose 3-30 µM.
The target of test [17] is T2, Solute carrier family 13 member 2 (Homo sapiens) (UniProt Q13183).
T2 sequence (whole entry): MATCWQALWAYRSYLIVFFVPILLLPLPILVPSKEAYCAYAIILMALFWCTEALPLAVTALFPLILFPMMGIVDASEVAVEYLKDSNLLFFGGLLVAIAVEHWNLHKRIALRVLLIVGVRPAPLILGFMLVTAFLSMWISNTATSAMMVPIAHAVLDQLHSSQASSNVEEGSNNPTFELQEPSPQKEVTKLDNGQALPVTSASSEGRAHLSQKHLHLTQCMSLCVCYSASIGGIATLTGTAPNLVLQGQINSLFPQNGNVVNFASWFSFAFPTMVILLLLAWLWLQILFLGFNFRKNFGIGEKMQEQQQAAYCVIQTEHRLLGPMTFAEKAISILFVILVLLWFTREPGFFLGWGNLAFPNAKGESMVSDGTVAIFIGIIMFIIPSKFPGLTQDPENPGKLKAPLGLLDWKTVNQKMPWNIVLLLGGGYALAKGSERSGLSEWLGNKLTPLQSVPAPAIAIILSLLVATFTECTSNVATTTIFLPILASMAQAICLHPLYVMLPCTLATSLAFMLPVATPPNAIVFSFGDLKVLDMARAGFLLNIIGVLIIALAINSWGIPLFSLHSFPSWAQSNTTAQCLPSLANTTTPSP
Put plainly: Inhibition of NaDC1 (unknown origin) citrate transport activity.

For test [18], the system named is Hepatocyte. Put plainly: Lipid lowering effect on PCN-induced lipid accumulation in mouse Primary hepatocyte assessed as decrease in intracellular total cholesterol level. It is filed as functional, cell-based. The settings on record: dose 3-30 µM.
For test [19], the system named is HepG2. The test can be described thus: Lipid lowering effect on PCN-induced lipid accumulation in human HepG2 cells assessed as decrease in FASN mRNA expression level at 3 to 30 uM by RT-qPCR analysis. In kind it is functional, cell-based. To be noted: dose 3-30 µM.
In test [20] the test system is Mus musculus. Put plainly: In vivo inhibition of SLC13A5 in starvation-induced hyperlipidemic male C57BL/6J mouse model assessed as increase in plasma citrate level at 30 mg/kg, ip starved for 48 hrs followed by compound administration and measured after 2 hrs. In kind it is functional, organism-based.

Active and inactive are the calls of the source. The rule behind the calls is not given here.

With `O=C(O)CC(O)(CCc1ccc(-c2ccccc2)cc1)C(=O)O` (stereo not given), the Activity entry in the test with Mus musculus [1], with AML12 [2], in the test with Mus musculus [7], with Mus musculus [9], in the test on HepG2 [13] and with Hepatocyte [18] was “Dose-Dependent Effect” throughout. The result in the test on HepG2 [3], in the test on Hepatocyte [4], with Hepatocyte [5], with AML12 [10], with Mus musculus [11] and in the test with Mus musculus [12] was Active. Further, the outcome in the test on Mus musculus [15], in the test on Hepatocyte [16] and in the test with HepG2 [19] was Active. The outcome in the test with Mus musculus [6] was inactive. Further, the inhibition result in test [8] and in test [17] was “inactive” each time. The inhibition entry in the test with Mus musculus [14] and with Mus musculus [20] was “Active” in each case.

Values taken from ChEMBL document CHEMBL5543131, “Discovery of Highly Potent Solute Carrier 13 Member 5 (SLC13A5) Inhibitors for the Treatment of Hyperlipidemia” (J Med Chem, 2024).
